Test results taken from patent US20210353614A1, “COMPOUNDS AND USES THEREOF TO TREAT TUMORS IN A SUBJECT” (Merck Patent GMBH, priority 2018, published 2021).
Like-named read-outs stand apart in the source and are kept apart here.

Key:
colon cancer cell line [1] = experiment: Immunogenic cell death induction (calreticulin, HSP70, HSP90 surface expression, ATP and HMGB1 release, caspase-3/7); format: cell-based
Description: […]. The inhibitor for ATM and SN38 were tested as single agents and in combination at the concentrations of the GI50 of the combination. The GI50 of SN38 was included as a positive control for induction of immunogenic cell death. […] Cell surface expression of calreticulin, HSP70 and HSP90 was analysed by Flow Cytometry, ATP secretion by ATPlite assay Perkin Elmer, HMGB1 release by HMGB1 Elisa (IBL International) and apoptosis by Caspase-Glo 3/7 Assay Systems (measures caspase-3/7 activities).
Analyses of DAMPs (Calreticulin, HSP70, HSP90, HMGB1 and ATP) were carried out whithin the same sample. Cells were treated 24 hours after seeding and analyses performed 72 hours post-treatment. Cells were used for FACS analyses and supenatants for ATP and HMGB1 measurements. Caspase-Glo 3/7 was carried out in parallel following the same treatment schedule.
For FACS analyses, an unstained sample was used as a gating control and an isotype sample to measure unspecific antibody binding. % PE positive cells represent cells with cell surface expression of the tested marker (all markers were conjugated with PE and tested independently). ATP secretion, HMGB1 release and apoptosis were carried out accordingly to the protocols provided by the commercial supplier (data represented as the average of two independent biological repeats).

colon cancer cell line [2] = experiment: GI50 of SN38 and of the combination with ATMi2; format: cell-based
[3] = test system: human colon cancer xenograft model SW620; experiment: CRC xenograft model, ATM inhibitors in combination with irinotecan; format: in vivo, mice
Description: Animals were treated with three 1-week cycles of a combination of irinotecan and the respective ATM inhibitors, or the respective monotherapy control arms. One cycle consisted of one irinotecan application (ip) at a dose of 50 mg/kg, followed by 100, and 50 mg/kg of ATMi 1, or 10 and 25 mg/kg of ATMi 2 (po) 24 h later and for four subsequent days.

[4] = combination ATMi 2 25 mg/kg + irinotecan, d28
[5] = combination ATMi 2 25 mg/kg po + irinotecan 50 mg/kg ip, day 21

CCc1c2c(nc3ccc(O)cc13)-c1cc3c(c(=O)n1C2)COC(=O)[C@]3(O)CC [SN38, reference compound]
induction of immunogenic cell death (colon cancer cell line [1]; SN38 at its GI50 (2 nM), 72 hours post-treatment): clear induction of immunogenic cell death
induction of immunogenic cell death (colon cancer cell line [1]; SN38 single agent at 0.4 nM, 72 hours post-treatment): not
GI50 (colon cancer cell line [2]; SN38 as single agent, read-out: GI50): 2 nM
GI50 (colon cancer cell line [2]; in combination with 250 nM ATMi2, read-out: GI50 of the combination (SN38 concentration)): 0.4 nM

CCc1c2c(nc3ccc(OC(=O)N4CCC(N5CCCCC5)CC4)cc13)-c1cc3c(c(=O)n1C2)COC(=O)[C@]3(O)CC [irinotecan, reference compound]
disease status ([3]; irinotecan arm, day 28): all animals showed progressive disease

COc1cc2ncc3c(c2cc1-c1cn(C)nc1C)n(-c1c(F)cncc1OC)c(=O)n3C [ATMi 2, 8-(1,3-Dimethyl-1H-pyrazol-4-yl)-1-(3-fluoro-5-methoxy-pyridin-4-yl)-7-methoxy-3-methyl-1,3-dihydro-imidazo[4,5-c]quinolin-2-one]
induction of immunogenic cell death (colon cancer cell line [1]; ATMi2 single agent at 250 nM, 72 hours post-treatment): not
induction of immunogenic cell death (colon cancer cell line [1]; combination 250 nM ATMi2 + 0.4 nM SN38, 72 hours post-treatment): clear induction of immunogenic cell death
GI50 (colon cancer cell line [2]; in combination with 0.4 nM SN38, read-out: GI50 of the combination (ATMi2 concentration)): 250 nM
partial responses (tumor volume >30% decrease) [3, 4]: 2/10
stable diseases (tumor volume change between 30% decrease and 73% increase) [3, 4]: 3/10
animals progression free (<73% increase in tumor volume compared to starting volume) ([3]; combination ATMi 2 25 mg/kg + irinotecan, d28, one week after stop of treatment): 5/10
decrease of mean tumor volume compared to starting volume [3, 5]: ~87%
mean tumor volume [3, 5]: 53 mm^3
